Results as given in patent publication US20240252509A1, “SELF-PRESERVING COMPOSITIONS AND MULTI-USE DISPENSERS FOR ADMINISTERING ALPHA-1062” (priority 2021, published 2024).

Tests used:
[1] = system: Escherichia coli (ATCC No. 8739); test: USP 51 Preservative Challenge Test, E. coli; format: cell-based; conditions: E. coli ATCC 8739, 82 mg/mL solution in water
Protocol: (§1) In order to assess the anti-microbial properties of Alpha-1062, the USP (US Pharmacopeia) Chapter 51 Preservative Challenge Test (USP 51) was employed. The USP 51 is a common method used to gauge preservative effectiveness. Much like a Preservative Challenge Screen, it is used to evaluate the effect of preservatives in cosmetics, personal care products, and drug products. Preservatives are typically antimicrobial ingredients that are added to aqueous product formulations to help maintain the safety of the product by inhibiting the growth and reducing the number of microbial contaminants.
(§2) In the context of the present invention, Alpha-1062 (in the form of the gluconate salt) was assessed in place of (as) a preservative. No additional preservative was added to the Alpha-1062 gluconate preparation, rather an anti-microbial effect of the agent itself (Alpha-1062) was assessed. Alpha-1062 is therefore the anti-microbial agent in the assay and experiments described below.
(§3) Cultures of the following microorganisms were applied, as per standard guidelines for USP 51: • Candida albicans (ATCC No. 10231), • Aspergillus brasiliensis (ATCC No. 16404), • Escherichia coli (ATCC No. 8739), • Pseudomonas aeruginosa (ATCC No. 9027), and • Staphylococcus aureus (ATCC No. 6538). […]
(§4) The inoculated containers were incubated at 22.5±2.5° C. and each container was sampled at the appropriate intervals, as specified in Table 3. Any changes observed in the appearance of the culture was recorded at these intervals. By using the plate-count procedure, the number of CFU present in each test preparation was determined for the applicable intervals.
(§5) An inactivator (neutralizer) of the specific antimicrobial was incorporated in the plate count or in the appropriate dilution prepared for plating. These conditions were determined in the validation study for that sample based upon the conditions of media and microbial recovery incubation times listed in Table 2. Using the calculated concentrations of CFU per mL present at the start of the test, the change in log 10 values of the concentration of CFU per mL for each microorganism was calculated at the applicable test intervals, and the changes were expressed in terms of log reductions.
(§6) The requirements for antimicrobial effectiveness are met if the criteria specified under Table 3 are met. No increase is defined as not more than 0.5 log 10 unit higher than the previous value measured. […]
(§7) The USP Criteria for Category 2 were employed in order to determine the presence of an anti-microbial effect. […] For yeast and molds, an antimicrobial effect is evident when no increase from the initial calculated count is determined at 14 and 28 days.

[2] = system: Pseudomonas aeruginosa (ATCC No. 9027); test: USP 51 Preservative Challenge Test, P. aeruginosa; format: cell-based; conditions: P. aeruginosa ATCC 9027, 82 mg/mL solution in water
Protocol: as §1, §2, §3, §4, §5, §6, §7

[3] = system: Staphylococcus aureus (ATCC No. 6538); test: USP 51 Preservative Challenge Test, S. aureus; format: cell-based; conditions: S. aureus ATCC 6538, 82 mg/mL solution in water
Protocol: as §1, §2, §3, §4, §5, §6, §7

[4] = system: Candida albicans (ATCC No. 10231); test: USP 51 Preservative Challenge Test, C. albicans; format: cell-based; conditions: C. albicans ATCC 10231, 82 mg/mL solution in water
Protocol: as §1, §2, §3, §4, §5, §6, §7

[5] = system: Aspergillus brasiliensis (ATCC No. 16404); test: USP 51 Preservative Challenge Test, A. brasiliensis; format: cell-based; conditions: A. brasiliensis ATCC 16404, 82 mg/mL solution in water
Protocol: as §1, §2, §3, §4, §5, §6, §7

[6] = system: all 5 organisms tested in the USP 51; test: USP 51 test, overall assessment against Category 2 criteria; format: cell-based; conditions: 82 mg/mL solution in water, USP Criteria for Category 2
Protocol: as §1
In the context of the present invention, Alpha-1062 (in the form of the gluconate salt) was assessed in place of (as) a preservative. No additional preservative was added to the Alpha-1062 gluconate preparation, rather an anti-microbial effect of the agent itself (Alpha-1062) was assessed. […]
as §6, §7

[7] = salts described in WO 2014/016430; cited from earlier work
[8] = Day 14, log10 reduction from initial count
[9] = Day 28, log10 reduction from initial count

With `COc1ccc2c3c1O[C@H]1C[C@@H](OC(=O)c4ccccc4)C=C[C@@]31CCN(C)C2` [Alpha-1062 Gluconate] as the molecule, how does the “CFU/mL Day 14” value ([1]; Day 14, 22.5±2.5° C., initial 9.1 × 10^5 CFU/mL) read?
The value was <10 CFU/mL.

And the “Log Reduction Day 14” value [1, 8]?
The value was 5.0.

And the “CFU/mL Day 28” value ([1]; Day 28, initial 9.1 × 10^5 CFU/mL)?
Its value is <10 CFU/mL.

What about the “Log Reduction Day 28” value [1, 9] of the same molecule?
The value was 5.0.

And the “CFU/mL Day 14” value ([2]; Day 14, initial 2.9 × 10^5 CFU/mL)?
The value was <10 CFU/mL.

What about the “Log Reduction Day 14” value [2, 8] of the same molecule?
Its value is 4.5.

And the “CFU/mL Day 28” value ([2]; Day 28, initial 2.9 × 10^5 CFU/mL)?
Its value is <10 CFU/mL.

And the “Log Reduction Day 28” value [2, 9]?
Its value is 4.5.

What about the “CFU/mL Day 14” value ([3]; Day 14, initial 4.0 × 10^5 CFU/mL) of the same molecule?
The value was <10 CFU/mL.

What about the “Log Reduction Day 14” value [3, 8] of the same molecule?
Its value is 4.6.

What about the “CFU/mL Day 28” value ([3]; Day 28, initial 4.0 × 10^5 CFU/mL) of the same molecule?
Its value is <10 CFU/mL.

And the “Log Reduction Day 28” value [3, 9]?
The value was 4.6.

What about the “CFU/mL Day 14” value ([4]; Day 14, initial 6.7 × 10^5 CFU/mL) of the same molecule?
The value was <10 CFU/mL.

And the “Log Reduction Day 14” value [4, 8]?
The value was 4.8.

What about the “CFU/mL Day 28” value ([4]; Day 28, initial 6.7 × 10^5 CFU/mL) of the same molecule?
Its value is <10 CFU/mL.

And the “Log Reduction Day 28” value [4, 9]?
The value was 4.8.

And the “CFU/mL Day 14” value ([5]; Day 14, initial 2.2 × 10^5 CFU/mL)?
Its value is 1.6 × 10^2 CFU/mL.

What about the “Log Reduction Day 14” value [5, 8] of the same molecule?
Its value is 3.1.

What about the “CFU/mL Day 28” value ([5]; Day 28, initial 2.2 × 10^5 CFU/mL) of the same molecule?
The value was 1.5 × 10^2 CFU/mL.

What about the “Log Reduction Day 28” value [5, 9] of the same molecule?
Its value is 3.1.

And the “anti-microbial effect in the USP 51” value [6]?
The value was “strong anti-microbial effect”.

What about the solubility in water [7] of the same molecule?
The solubility in water was “above 10 % weight per volume (w/v)”.
